Results taken from patent publication US20250122222A1, “HETEROCYCLIC COMPOUNDS AND METHODS OF USE” (AMGEN INC., priority 2021, published 2025).
Where two headings read alike, the source gives them in different places.

Assays:
[1] = biological target: His-tagged KRAS G12D protein (Homo sapiens, UniProt P01116, G12D); assay: KRAS G12D TR-FRET assay (binding); details: biotinylated KRPep-2d substrate, GDP in assay buffer
[2] = tested on: Phosphorylation of ERK1/2 in AsPC-1 cells; assay: Phospho-ERK1/2 MSD assay; type: cell-based
Experimental: Sixteen hours prior to compound treatment, AsPC-1 cells were seeded in 96-well cell culture plates at a density of 25,000 cells/well and incubated at 37° C., 5% CO2. A compound dose-response titration was diluted in growth media, added to appropriate wells of a cell culture plate, and then incubated at 37° C., 5% CO2 for 2 hours.

[3] = Homo sapiens, ASPC1, read-out: 2 h p-ERK (AsPC-1 cells), IC50 (μM), 2 hours compound treatment

Chain of His-tagged KRAS G12D protein (P01116 1-188 isoform P01116-2 G12D): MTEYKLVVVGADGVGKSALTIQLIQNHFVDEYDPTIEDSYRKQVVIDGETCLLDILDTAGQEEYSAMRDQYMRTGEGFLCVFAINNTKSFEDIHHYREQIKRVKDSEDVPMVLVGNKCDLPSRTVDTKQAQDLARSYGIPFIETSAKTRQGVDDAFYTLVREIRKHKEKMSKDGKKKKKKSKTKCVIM

SMILES	IC50 [1]	IC50 [2, 3]	IC50 ([2]; read-out: 2 h p-ERK (AsPC-1 cells), IC50, 2 hours compound treatment)
CCc1c(F)ccc2cc(O)cc(-c3ncc4c(N5CCOC[C@](O)(CC)C5)nc(OC[C@@]56CCCN5C[C@H](F)C6)nc4c3F)c12 [Example 79, (S)-6-Ethyl-4-(7-(8-ethyl-7-fluoro-3-hydroxynaphthalen-1-yl)-8-fluoro-2-(((2R,7aS)-2-fluorotetrahydro-1H-pyrrolizin-7a(5H)-yl)methoxy)pyrido [4,3-d]pyrimidin-4-yl)-1,4-oxazepan-6-o1]	1 nM	–	0.024 µM
Oc1cc(-c2ncc3c(N4CCCOCC4)nc(OCC45CCCN4CCC5)nc3c2F)c2ccccc2c1 [Example 13, 4-(8-Fluoro-4-(1,4-oxazepan-4-yl)-2-((tetrahydro-1H-pyrrolizin-7a(5H)-yl)methoxy)pyrido [4,3-d]pyrimidin-7-yl)naphthalen-2-ol]	11 nM	4.18 µM	–
Oc1cc(-c2ncc3c(N4CCCOCC4)nc(OC[C@@]45CCCN4C[C@H](F)C5)nc3c2F)c2c(F)c(F)ccc2c1 [Example 3, 5,6-Difluoro-4-(8-fluoro-2-(((2R,7aS)-2-fluorotetrahydro-1H-pyrrolizin-7a(5H)-yl)methoxy)-4-(1,4-oxazepan-4-yl)pyrido[4,3-d]pyrimidin-7-yl)naphthalen-2-ol]	2 nM	0.047 µM	–
CCc1cccc2cc(O)cc(-c3ncc4c(N5CCOCC(F)(F)C5)nc(OC[C@@]56CCCN5C[C@H](F)C6)nc4c3F)c12 [Example 7, 4-(4-(6,6-Difluoro-1,4-oxazepan-4-yl)-8-fluoro-2-(((2R,7aS)-2-fluorotetrahydro-1H-pyrrolizin-7a(5H)-yl)methoxy)pyrido [4,3-d]pyrimidin-7-yl)-5-ethylnaphthalen-2-ol]	2 nM	0.046 µM	–
CCc1c(F)ccc2cc(O)cc(-c3ncc4c(N5CC6COC(C5)C6O)nc(OC[C@@]56CCCN5C[C@H](F)C6)nc4c3F)c12 (relative stereo) [Example 11, 3-(7-(8-Ethyl-7-fluoro-3-hydroxynaphthalen-1-yl)-8-fluoro-2-(((2R,7aS)-2-fluorotetrahydro-1H-pyrrolizin-7a(5H)-yl)methoxy)pyrido [4,3-d]pyrimidin-4-yl)-6-oxa-3-azabicyclo[3.2.1] octan-8-ol]	39 nM	> 10 µM	–
CCc1c(F)ccc2cc(O)cc(-c3ncc4c(N5CCSCC5)nc(OC[C@@]56CCCN5C[C@H](F)C6)nc4c3F)c12 [Example 4, 5-Ethyl-6-fluoro-4-(8-fluoro-2-(((2R,7aS)-2-fluorotetrahydro-1H-pyrrolizin-7a(5H)-yl)methoxy)-4-thiomorpholino-pyrido[4,3-d]pyrimidin-7-yl)naphthalen-2-ol]	4 nM	0.486 µM	–
CN1C[C@H](F)C[C@H]1COc1nc(N2CCCOCC2)c2cnc(-c3cc(O)cc4ccccc34)c(F)c2n1 [Example 16, 4-(8-Fluoro-2-(((2S,4R)-4-fluoro-1-methylpyrrolidin-2-yl)methoxy)-4-(1,4-oxazepan-4-yl)pyrido[4,3-d]pyrimidin-7-yl)naphthalen-2-ol]	73 nM	4.83 µM	–
CCc1c(F)ccc2cc(O)cc(-c3ncc4c(N5CCCOCC5)nc(OC[C@@H]5C[C@@H](F)CN5C)nc4c3F)c12 [Example 9, 5-Ethyl-6-fluoro-4-(8-fluoro-2-(((2S,4R)-4-fluoro-1-methylpyrrolidin-2-yl)methoxy)-4-(1,4-oxazepan-4-yl)pyrido[4,3-d]pyrimidin-7-yl)naphthalen-2-ol]	8 nM	0.353 µM	–
Cc1c(Cl)cc2[nH]ncc2c1-c1ncc2c(N3CCCOCC3)nc(OC[C@@]34CCCN3C[C@H](F)C4)nc2c1F [Example 15, 4-(7-(6-Chloro-5-methyl-1H-indazol-4-yl)-8-fluoro-2-(((2R,7aS)-2-fluorotetrahydro-1H-pyrrolizin-7a(5H)-yl)methoxy)pyrido [4,3-d]pyrimidin-4-yl)-1,4-oxazepane]	36 nM	4.51 µM	–
CCc1cccc2cc(O)cc(-c3ncc4c(N5C[C@H]6COC[C@@H](C5)O6)nc(OC[C@@]56CCCN5C[C@H](F)C6)nc4c3F)c12 [Example 23, 4-(4-((1R,5S)-3,9-Dioxa-7-azabicyclo[3.3.1]nonan-7-yl)-8-fluoro-2-(((2R,7aS)-2-fluorotetrahydro-1H-pyrrolizin-7a(5H)-yl)methoxy)pyrido [4,3-d]pyrimidin-7-yl)-5-ethylnaphthalen-2-ol]	29 nM	1.15 µM	–
CCc1c(F)ccc2cc(O)cc(-c3ncc4c(N5C[C@@H]6CC[C@@H]5CO6)nc(OC[C@@]56CCCN5C[C@H](F)C6)nc4c3F)c12 [Example 28, 4-(4-((1S,4R)-2-Oxa-5-azabicyclo[2.2.2]octan-5-yl)-8-fluoro-2-(((2R,7aS)-2-fluorotetrahydro-1H-pyrrolizin-7a(5H)-yl)methoxy)pyrido [4,3-d]pyrimidin-7-yl)-5-ethyl-6-fluoronaphthalen-2-ol]	79 nM	1.77 µM	–
CCc1c(F)ccc2cc(O)cc(-c3ncc4c(N5C[C@H]6COC[C@@H](C5)O6)nc(OC[C@@]56CCCN5C[C@H](F)C6)nc4c3F)c12 [Example 21, 4-(4-((1R,5S)-3,9-Dioxa-7-azabicyclo[3.3.1]nonan-7-yl)-8-fluoro-2-(((2R,7aS)-2-fluorotetrahydro-1H-pyrrolizin-7a(5H)-yl)methoxy)pyrido [4,3-d]pyrimidin-7-yl)-5-ethyl-6-fluoronaphthalen-2-ol]	11 nM	0.621 µM	–

Further lines, with some results ahead:

IC50 [1]	IC50 [2, 3]	SMILES	IC50 ([2]; read-out: 2 h p-ERK (AsPC-1 cells), IC50, 2 hours compound treatment)
6 nM	3.33 µM	CCc1c(F)ccc2cc(O)cc(-c3ncc4c(N5CCOC(C(N)=O)C5)nc(OC[C@@]56CCCN5C[C@H](F)C6)nc4c3F)c12 (stereo partly drawn) [Example 76, 4-(7-(8-Ethyl-7-fluoro-3-hydroxynaphthalen-1-yl)-8-fluoro-2-(((2R,7aS)-2-fluorotetrahydro-1H-pyrrolizin-7a(5H)-yl)methoxy)pyrido[4,3-d]pyrimidin-4-yl)morpholine-2-carboxamide]	–
1 nM	0.643 µM	C#CC1(O)COCCN(c2nc(OC[C@@]34CCCN3C[C@H](F)C4)nc3c(F)c(-c4cc(O)cc5ccc(F)c(CC)c45)ncc23)C1 (stereo partly drawn) [Example 70, 4-(7-(8-ethyl-7-fluoro-3-hydroxynaphthalen-1-yl)-8-fluoro-2-(((2R,7aS)-2-fluorotetrahydro-1H-pyrrolizin-7a(5H)-yl)methoxy)pyrido[4,3-d]pyrimidin-4-yl)-6-ethynyl-1,4-oxazepan-6-ol]	–
3 nM	0.081 µM	CCc1c(F)ccc2cc(O)cc(-c3ncc4c(N5CCCOC(CO)C5)nc(OC[C@@]56CCCN5C[C@H](F)C6)nc4c3F)c12 (stereo partly drawn) [Example 56, 5-Ethyl-6-fluoro-4-(8-fluoro-2-(((2R, 7aS)-2-fluorotetra-hydro-1H-pyrrol-izin-7a(5H)-yl)-methoxy)-4-(2-(hydroxymethyl)-1,4-oxazepan-4-yl)pyrido[4,3-d]pyrimidin-7-yl)-naphthalen-2-ol]	–
1 nM	0.651 µM	CCc1c(F)ccc2cc(O)cc(-c3ncc4c(N5CCC[S+]([O-])CC5)nc(OC[C@@]56CCCN5C[C@H](F)C6)nc4c3F)c12 (stereo partly drawn) [Example 36, 4-(7-(8-Ethyl-7-fluoro-3-hydroxynaphthalen-1-yl)-8-fluoro-2-(((2R,7aS)-2-fluorotetrahydro-1H-pyrrolizin-7a(5H)-yl)methoxy)pyrido[4,3-d]pyrimidin-4-yl)-1,4-thiazepane 1-oxide]	–
6 nM	6.23 µM	CCc1c(F)ccc2cc(O)cc(-c3ncc4c(N5CCCOC(C(N)=O)C5)nc(OC[C@@]56CCCN5C[C@H](F)C6)nc4c3F)c12 (stereo partly drawn) [Example 51, 4-(7-(8-Ethyl-7-fluoro-3-hydroxy-naphthalen-1-yl)-8-fluoro-2-(((2R, 7aS)-2-fluorotetra-hydro-1H-pyrrol-zin-7a(5H)-yl)-methoxy)pyrido [4,3-d]pyrimidin-4-yl)-1,4-oxazepane-2-carboxamide]	–
3 nM	1.47 µM	CCc1c(F)ccc2cc(O)cc(-c3ncc4c(N5CCOCC(C(N)=O)C5)nc(OC[C@@]56CCCN5C[C@H](F)C6)nc4c3F)c12 (single isomer, unassigned) [Example 47]	–
4 nM	0.436 µM	CCc1c(F)ccc2cc(O)cc(-c3ncc4c(N5CCOCC(O)(C6CC6)C5)nc(OC[C@@]56CCCN5C[C@H](F)C6)nc4c3F)c12 (stereo partly drawn) [Example 74, 6-Cyclopropyl-4-(7-(8-ethyl-7-fluoro-3-hydroxynaphthalen-1-yl)-8-fluoro-2-(((2R,7aS)-2-fluorotetrahydro-1H-pyrrolizin-7a(5H)-yl)methoxy)pyrido[4,3-d]pyrimidin-4-yl)-1,4-oxazepan-6-ol]	–
1 nM	0.393 µM	CCc1c(F)ccc2cc(O)cc(-c3ncc4c(N5CC[S+]([O-])CC5)nc(OC[C@@]56CCCN5C[C@H](F)C6)nc4c3F)c12 [Example 34, 4-(7-(8-Ethyl-7-fluoro-3-hydroxynaphthalen-1-yl)-8-fluoro-2-(((2R,7aS)-2-fluorotetrahydro-1H-pyrrolizin-7a(5H)-yl)methoxy)pyrido[4,3-d]pyrimidin-4-yl)thiomorpholine 1-oxide]	–
33 nM	1.28 µM	CCc1c(F)ccc2cc(O)cc(-c3ncc4c(N5CCO[C@H](C)C5)nc(OC[C@@]56CCCN5C[C@H](F)C6)nc4c3F)c12 [Example 52, 5-Ethyl-6-fluoro-4-(8-fluoro-2-(((2R,7aS)-2-fluorotetrahydro-1H-pyrrolizin-7a(5H)-yl)meth-oxy)-4-((R)-2-methylmorpho-lino)-pyrido[4,3-d]pyrimidin-7-yl)-naphthalen-2-ol]	–
1 nM	0.013 µM	CCc1cccc2cc(O)cc(-c3ncc4c(N5CCOC[C@@](C)(O)C5)nc(OC[C@@]56CCCN5C[C@H](F)C6)nc4c3F)c12 [Example 78, (S)-4-(7-(8-Ethyl-3-hydroxynaphthalen-1-yl)-8-fluoro-2-(((2R,7aS)-2-fluorotetrahydro-1H-pyrrolizin-7a(5H)-yl)methoxy)pyrido [4,3-d]pyrimidin-4-yl)-6-methyl-1,4-oxazepan-6-ol]	–
